The text below walks through data of US4962020A, “DNA sequencing” (President and Fellows of Harvard College, priority 1988, dated 1990).

The test system of series [1] is DNA polymerase. The series can be described thus: ddNTP versus dNTP incorporation (discrimination) in primer extension / sequencing reaction with metal ions. Format: biochemical. The settings on record: for effect of cation on DNA synthesis / sequencing reaction: monovalent and divalent cations tested. On the procedure: In order to determine whether any particular DNA polymerase, in combination with any particular chain terminating agent, or other component of a sequencing reaction mixture, is useful in this invention, a standard sequencing reaction is performed, as described below and shown in the drawings, and the extent of band formation, and the uniformity of nearby bands in a sequencing gel, reviewed. […] Adjacent band uniformity within a two-fold or less range is useful in this invention, preferably the uniformity is within a 1.0-1.5 fold range. Similarly, determination of optimum cation concentration, or of other potential cations useful in the invention, is determined by use of this sequencing reaction under various conditions. For example, cations are tested in ranges from 0.005-100 mM. An example of such an experiment follows:
DNA synthesis is measured using a 17-mer primer of sequence 5'-[…]-3' (New England Biolabs catalog number 1211) that has been labeled with ^32 P at its 5' end and annealed to single-stranded mGPl-2 DNA. Tabor et al., proc. Nat. Acad. Sci. USA 84:4767 (1987) and Tabor et al., J. Biol. Chem. 262:16212 (1987). Any other template is equally useful in this reaction. This primer-template is used in a reaction that contains a DNA polymerase in the presence of a range of concentrations of a metal ion. Reactions are carried out in the presence of a given concentration of all 4 deoxynucleotides (dNTPS, 20-200 μM), and over a range of concentrations of one dideoxynucleotide (ddNTP, in this example, ddGTP from 10-500 μM). The DNA products are then analyzed by polyacrylamide gel electrophoresis, where DNA synthesis is detected as extensions of the primer producing bands, representing extensions of various molecular weights, in the gel.
In a specific example, each reaction mixture (10μl) contained 0.1 μg^32 P-primer-template, 40 mM Tris-HCl pH 7.5, 5 mM dithiothreitol (DTT) 5μM to 20mM metal ion, 10 to 500 μM 4dNTPs, 1 to 500 μM ddNTPs, and 2 units of a DNA polymerase. Incubation was at 37° C. for 15 min. The reaction was stopped by addition of 10μl of 90% formamide, 50 mM EDTA, and 0.1% bromophenol blue.
Electrophoresis was at 2000 volts for 2 hours. The gel was fixed in 50% methanol, 10% acetic acid for 30 min., dried, and exposed, for autoradiography. Band intensity in each lane of the resulting film was determined by scanning each lane with a densitometer. The densitometer used was a double-beam recording instrument, model MkIIIC (Joyce, Loebl & Co., Ltd., Gateshead-on-tyne, II, England). Any suitable densitometer instrument for scanning gels will also work. Alternatively, the uniformity of the resulting bands can be determined by scanning the DNA products as they are electrophoresed within the gel.
The ability to incorporate a given ddNTP compared to the corresponding dNTP for any one enzyme is measured as the ratio of ddNTP to dNTP necessary to allow DNA synthesis that terminates in a fixed range, detected as producing bands of no greater than a fixed molecular weight. That is, the bands produced in the reaction end within a specified range in the sequencing gel. Thus, if one enzyme discriminates 1000-fold greater against a given ddNTP compared to another enzyme, a 1000-fold higher ratio of ddNTP to dNTP will be necessary to obtain bands terminating at the corresponding sites in the same range of the gel.

For series [2], the target named is genetically modified T7 DNA polymerase (ΔLys118-Arg145) (Escherichia phage T7, UniProt P00581, DEL118-145).
Chain of genetically modified T7 DNA polymerase (ΔLys118-Arg145) (P00581 with tags, fused parts or gaps DEL118-145): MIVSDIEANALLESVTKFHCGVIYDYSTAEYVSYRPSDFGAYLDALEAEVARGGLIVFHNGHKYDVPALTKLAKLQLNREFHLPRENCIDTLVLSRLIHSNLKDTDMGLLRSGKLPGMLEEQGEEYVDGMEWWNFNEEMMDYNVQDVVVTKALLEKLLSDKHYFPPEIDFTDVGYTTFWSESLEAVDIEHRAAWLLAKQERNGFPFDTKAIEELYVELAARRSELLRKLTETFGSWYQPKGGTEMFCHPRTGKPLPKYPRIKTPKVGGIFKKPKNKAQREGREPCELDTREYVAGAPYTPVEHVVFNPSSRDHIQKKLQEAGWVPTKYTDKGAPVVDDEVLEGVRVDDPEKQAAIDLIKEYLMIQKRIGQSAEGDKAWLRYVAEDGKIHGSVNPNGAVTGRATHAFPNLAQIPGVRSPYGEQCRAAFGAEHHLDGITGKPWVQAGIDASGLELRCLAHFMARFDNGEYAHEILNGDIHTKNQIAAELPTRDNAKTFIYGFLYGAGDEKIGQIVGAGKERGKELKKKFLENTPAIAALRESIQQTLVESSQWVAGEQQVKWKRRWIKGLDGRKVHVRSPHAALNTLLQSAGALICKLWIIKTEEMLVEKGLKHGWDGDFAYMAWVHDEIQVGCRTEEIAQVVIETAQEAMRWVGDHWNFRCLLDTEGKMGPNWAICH
The target in series [3] is T1, genetically modified T7 DNA polymerase (Escherichia phage T7, UniProt P00581, DEL118-145).
T1 construct: made in house; host or cells: E. coli strain K38/pTrx-3/pGP5-8
T1 sequence (P00581 other isoform, or with tags, fused parts or gaps DEL118-145): as the sequence (P00581 with tags, fused parts or gaps DEL118-145) above
T1 sequence (P0AA25 2-109, stated change not applied, further chain): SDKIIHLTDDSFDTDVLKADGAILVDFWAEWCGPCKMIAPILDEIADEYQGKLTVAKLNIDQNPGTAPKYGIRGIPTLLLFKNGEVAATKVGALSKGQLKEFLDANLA
The series is classed as biochemical.

Read-outs that look alike come from different tables or passages of the source.

For the molecule `[Ba]` [Ba], the “effect of cation on DNA synthesis / sequencing reaction” value in series [1] is given as “no detectable effect, or are detrimental to DNA synthesis”.

In the case of `[Be]` [Be], the “effect of cation on DNA synthesis / sequencing reaction” value in series [1] is listed as “no detectable effect, or are detrimental to DNA synthesis”. The same measure, in the same setting: in the case of `[Ca]` [Ca] it was “no detectable effect, or are detrimental to DNA synthesis”. On the same count and under the same terms, with `[Ce]` [Ce] the entry was “no detectable effect, or are detrimental to DNA synthesis”. Still for that read-out and setting: in the case of `[Co]` [Co] it was “no detectable effect, or are detrimental to DNA synthesis”; in that of `[Cr]` [Cr], “no detectable effect, or are detrimental to DNA synthesis”.

Turning to `[Cu]` [Cu], the “effect of cation on DNA synthesis / sequencing reaction” value in series [1] is given as “no detectable effect, or are detrimental to DNA synthesis”. On the same count and under the same terms, in the case of `[Na]` [Na] it was “no detectable effect, or are detrimental to DNA synthesis”; in that of `[Ni]` [Ni], “no detectable effect, or are detrimental to DNA synthesis”; in that of `[Si]` [Si], “no detectable effect, or are detrimental to DNA synthesis”.

As for `[Zn]` [Zn], the “effect of cation on DNA synthesis / sequencing reaction” value in series [1] is recorded as “no detectable effect, or are detrimental to DNA synthesis”.

Regarding `O=c1[nH]cnc2c1ncn2[C@H]1CC[C@@H](COP(=O)(O)OP(=O)(O)OP(=O)(O)O)O1` [ddITP, dideoxy ITP, reference compound], the “discrimination against ddITP compared to ddGTP” value in series [1] (in the presence of Mn) is 10 fold.

Turning to `O=C([O-])CC(C(=O)[O-])C(O)C(=O)[O-].[Na+].[Na+].[Na+]` (stereo not drawn) [isocitrate, sodium isocitrate], the optimal isocitrate concentration in series [2] turned out to be 40 mM. The “effect of isocitrate on polymerase activity” value in series [2] (10 mM magnesium, any amount of isocitrate, FIG. 9) is listed as “inhibitory effect on polymerase”. Besides, in series [2] (t7 dna polymerase, 0.5 h, 40000 µM, pH 7.5), the “stimulation of polymerase activity” value was 4 fold. Take `[Mg+2]` [magnesium]: in series [3] (Example 1 sample run with magnesium in place of manganese), the “intensity of underlined bases in triplets versus adjacent bases” value is 2-5 fold. Moreover, in series [3] (all four ddNTPs at equal concentration, magnesium, FIG. 6), the “variation of nearby band intensity” value is “varies greatly”. Also, the “variation of nearby band intensity (peak height)” value in series [3] (ddGTP only, magnesium instead of manganese, FIG. 3) was at most 10 fold. The “optimum ion concentration in a sequencing reaction (polymerase activity)” value in series [2] (absence of a chelator, FIG. 8) stood at 20 mM. `[Mn+2]` [manganese]: the “difference in band intensity between bases in the triplets TCT, AAG, GCA, CCT” value in series [3] (Example 1, manganese in sequencing buffer, densitometer) is given as “at most 20%”. Further, in series [3] (all four ddNTPs at 0.75 μM each, manganese, FIG. 5), the “variation of nearby bands and peaks” value is recorded as “no more than 1.5 fold”. Besides, in series [2], the “optimum ion concentration in a sequencing reaction (polymerase activity)” value was determined as 1 mM and the optimum manganese concentration fell in the range of 5 to 20 mM. With “Taq polymerase: DNA polymerase used for sequencing”, the “lessening of the requirement for chain terminating agents (dideoxynucleosides)” value in series [1] (in the presence of manganese or iron ions) is around 1000 fold.
